Test [1] is described as follows: P. falciparum Dd2 growth inhibitors, dose response, SYBR Green, cherry-picked samples (AID 1159567). Format: functional, cell-based.
Test [2] can be described thus: HepG2 cell cytotoxicity, dose response, cytotoxicity control, plate reader, dry powder samples (AID 1159569).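 Further: inhibitor potency with signal falling toward the positive control level.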 The format is functional, cell-based.
A short description of test [3]: P. falciparum Dd2 growth inhibitors, dose response, SYBR Green, dry powder samples (AID 1159566).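 Further: potency for growth inhibition with lower SYBR green DNA signal.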 Format: functional, cell-based.
The nature of test [4]: P. falciparum ATP4 D1247Y mutant growth inhibitors, dose response, NITD609-resistant line, SYBR Green, dry powder (AID 1159571).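 Further: parasites synchronized at ring stage by sorbitol before testing.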 Format: functional, cell-based.
Test [5] in a line: P. falciparum 3D7-ScDHODH growth inhibitors, dose response, SYBR Green, dry powder samples (AID 1159570).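 Further: parasite growth measured after 72 hours of compound exposure.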 The format is functional, cell-based.
The next test concerns the target Paired box protein Pax-8 (Homo sapiens, UniProt Q06710). The test is described as follows: inhibitors of PAX8-driven TPO luciferase reporter, dose response, RMG-I cells, cherry-pick (AID 687027).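 Further: luciferase reporter driven by Pax8 target thyroperoxidase promoter measured by SteadyGlo luminescence.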 The format is functional, cell-based.
For a further test, the target named is Mu-type opioid receptor (Homo sapiens, UniProt P35372). The test is described as follows: HTS Image-Based Screen for Agonists of the MOR Receptor. [Related pubchem assays (depositor defined):AID1777, AID1785, AID1786, AID2133]. The format is functional.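 Further: imaging of beta-arrestin GFP recruitment into spots after receptor activation.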
The target in test [6] is T1, Delta-type opioid receptor (Homo sapiens, UniProt P41143). The test is described as follows: HTS Image-Based Screen for Agonists of the DOR Receptor. [Related pubchem assays (depositor defined):AID1777, AID1786, AID2133]. The format is functional.
Test [7] deals with T2, Kappa-type opioid receptor (Homo sapiens, UniProt P41145). Format: functional.
Another test has as its target Genome polyprotein (dengue virus type 2, UniProt P29990). The test is described as follows: Dengue-2 NS5 methyltransferase inhibitors, primary screen, biochemical, confirmation dose response (AID 588689). The format is functional.
The target of test [8] is T3, Type-1 angiotensin II receptor (Homo sapiens, UniProt P30556).
T3 sequence (P30556 whole entry): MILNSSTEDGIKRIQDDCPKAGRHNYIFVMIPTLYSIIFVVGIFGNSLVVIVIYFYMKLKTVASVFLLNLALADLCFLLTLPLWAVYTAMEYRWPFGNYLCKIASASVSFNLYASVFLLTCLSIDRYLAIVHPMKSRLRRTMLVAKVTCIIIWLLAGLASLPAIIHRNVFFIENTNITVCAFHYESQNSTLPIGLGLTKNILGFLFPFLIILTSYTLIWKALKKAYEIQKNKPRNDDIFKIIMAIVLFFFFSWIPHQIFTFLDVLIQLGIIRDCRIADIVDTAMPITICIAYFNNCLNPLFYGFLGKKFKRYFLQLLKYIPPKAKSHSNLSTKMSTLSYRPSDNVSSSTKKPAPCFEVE
The test is described as follows: AT1 receptor antagonists, dose response, selectivity assay for APJ receptor antagonist project, cell-based, uHTS hits (AID 463214).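 Further: antagonist potency against angiotensin II stimulated AT1 response.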 The format is functional.

Test [9] has as its target T4, Beta-galactosidase (Escherichia coli, UniProt Q8VNN2). The test is described as follows: PubChem AID 485352. Format: functional.
Test [10] concerns the target Bifunctional protein GlmU (Mycobacterium tuberculosis, UniProt P9WMN3). The test is described as follows: Inhibitors of Mycobacterial Glucosamine-1-phosphate acetyl transferase (GlmU). Secondary screen. Further details: species or system Mycobacterium tuberculosis H37Rv.
In the next test the test system is CHO. The test is described as follows: cytotoxicity in TLR9-MyD88 CHO cells, dose response, cytotoxicity control for TLR9-MyD88 binding inhibitor project, cell-based, luminescence (AID 588339).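 Further: CHO cells stably coexpressing TLR9 and MyD88 fusions from primary screen; compound exposure lasted 48 hours before viability readout.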 Conditions: Cricetulus griseus. Format: functional, hamster.
Test [11] has as its target G-protein coupled receptor 55 (Homo sapiens, UniProt Q9Y2T6). The test is described as follows: GPR55 antagonists blocking LPI-driven arrestin recruitment, primary screen, imaging, U2OS, beta-arrestin-GFP, LPI agonist (AID 2013).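 Further: antagonist potency measured as reduced agonist-driven arrestin aggregation.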 The format is functional.
The next test deals with Beta Lactamase (Pseudomonas aeruginosa, UniProt Q932Y6). The test is described as follows: beta-lactamase reporter inhibitor potency, dose response, artefact control for TLR9-MyD88 binding inhibitor project, BLA reporter cells, FRET fluorescence (AID 588341).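 Further: cell based assay in CHO-K1 cells stably expressing beta-lactamase.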 The format is cell-based.
In test [12] the target is T1, Delta-type opioid receptor. The test is described as follows: HTS Image-Based Screen for Antagonists of the DOR Receptor. [Related pubchem assays (depositor defined):AID1777, AID1785, AID1786, AID2133]. The format is functional.
Test [13] addresses T2, Kappa-type opioid receptor. The format is functional. This is another data set of the same source.
The subject of another test is Vero. The test is described as follows: Vero cell cytotoxicity, cytotoxicity control for flavivirus capping enzyme inhibitors (AID 588742). The format is functional. The settings on record: Chlorocebus sabaeus.
Test [14] addresses T4, Beta-galactosidase. Format: functional.
Test [15] is described as follows: Luminescence-based cell-based high throughput dose response assay to identify activators of the DAF-12 from the parasite S. stercoralis (ssDAF-12). The format is functional.
Test [16] deals with T5, Oxysterols receptor LXR-beta (Homo sapiens, UniProt P55055).
T5 sequence (P55055 whole entry): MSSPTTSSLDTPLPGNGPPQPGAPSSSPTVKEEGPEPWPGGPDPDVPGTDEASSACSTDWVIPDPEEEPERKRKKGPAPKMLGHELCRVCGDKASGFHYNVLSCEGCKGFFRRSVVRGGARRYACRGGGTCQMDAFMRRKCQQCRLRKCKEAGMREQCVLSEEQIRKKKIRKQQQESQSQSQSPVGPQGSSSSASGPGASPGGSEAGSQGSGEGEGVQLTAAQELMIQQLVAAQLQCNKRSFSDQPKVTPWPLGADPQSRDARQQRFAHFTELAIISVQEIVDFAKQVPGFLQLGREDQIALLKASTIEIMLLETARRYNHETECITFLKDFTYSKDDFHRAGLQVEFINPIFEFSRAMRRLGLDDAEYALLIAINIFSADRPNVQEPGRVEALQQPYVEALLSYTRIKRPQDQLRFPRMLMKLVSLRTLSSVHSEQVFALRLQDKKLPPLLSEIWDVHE
The test is described as follows: LXR agonists, Gal4 luciferase reporter, dose response, counter-screen for ssDAF-12 agonist project, cell-based, luminescence, HEK293, S. stercoralis campaign (AID 720737). Format: functional. The settings on record: read-out: IC50 (the source's name). In general terms: A reporter such as luciferase makes a cellular process visible.

The nature of test [17]: C. albicans growth with fluconazole, confirmation, fluorescence, retest (AID 2467). The format is functional, cell-based.
Test [18] deals with T6, Serine/threonine-protein phosphatase (Candida dubliniensis (strain CD36 / CBS 7987 / NCPF 3949 / NRRLY-17841) (Yeast), UniProt B9W6M3).
T6 sequence (B9W6M3 whole entry): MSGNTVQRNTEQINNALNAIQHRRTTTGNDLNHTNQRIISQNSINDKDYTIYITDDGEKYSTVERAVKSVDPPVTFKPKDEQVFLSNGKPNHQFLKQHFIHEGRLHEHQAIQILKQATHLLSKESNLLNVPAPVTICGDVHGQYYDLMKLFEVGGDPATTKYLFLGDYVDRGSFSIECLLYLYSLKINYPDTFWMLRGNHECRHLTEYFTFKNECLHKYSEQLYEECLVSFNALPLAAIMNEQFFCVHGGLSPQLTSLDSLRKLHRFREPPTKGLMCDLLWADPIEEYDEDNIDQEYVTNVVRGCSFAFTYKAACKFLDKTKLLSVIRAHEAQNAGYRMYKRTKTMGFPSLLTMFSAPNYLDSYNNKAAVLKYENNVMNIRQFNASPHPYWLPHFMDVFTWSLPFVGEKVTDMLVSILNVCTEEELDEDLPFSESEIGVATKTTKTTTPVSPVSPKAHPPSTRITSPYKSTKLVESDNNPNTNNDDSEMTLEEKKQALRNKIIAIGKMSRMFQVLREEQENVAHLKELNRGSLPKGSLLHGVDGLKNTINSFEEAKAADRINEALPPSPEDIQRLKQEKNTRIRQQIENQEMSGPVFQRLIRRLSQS
The test is described as follows: calcineurin pathway inhibitors in yeast reporter, dose response, S. cerevisiae, CDRE-lacZ, luminescence, secondary (AID 2388).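 Further: yeast reporter cells carrying a calcineurin-responsive lacZ construct stimulated with calcium chloride; luminescent beta-galactosidase reporter signal in whole cells rather than isolated phosphatase activity; potency for inhibition where a drop in reporter signal means calcineurin blockade.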 The format is functional, cell-based.

Test [19] has as its target ATP-dependent molecular chaperone HSP82 (Candida albicans (strain WO-1) (Yeast), UniProt C4YTQ8). The test is described as follows: loss of DOC-induced GRE-beta-galactosidase reporter signal, dose response, Hsp90 inhibitor project, S. cerevisiae, luminescence (AID 2400).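 Further: beta-galactosidase luminescence from glucocorticoid response element reporter as proxy for Hsp90 function; inhibitor potency where signal loss means Hsp90 inhibition.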 Format: functional, cell-based.
Test [20] in a line: NIH-3T3 fibroblast cytotoxicity, dose response, cytotoxicity control, cell-based, fluorescence, Alamar Blue, secondary assay (AID 2327).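 Further: NIH-3T3 mouse fibroblasts cultured with fluconazole at 8 µg/mL.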 The format is functional.
The target of test [21] is RNA-editing ligase 1, mitochondrial (Trypanosoma brucei brucei, UniProt P86926). The test is described as follows: TbREL1 ligase inhibitors, dose response, biochemical, fluorescence, Trypanosoma brucei (AID 1117295). The format is functional.
A further test has as its target Protein Tat (Human immunodeficiency virus type 1 group M subtype B (isolate HXB2)(HIV-1), UniProt P04608). The format is functional.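 Further: tat binding to TAR RNA read out by fluorescence polarization.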

Active and inactive are the calls of the source.

A word on the AC50: it is the concentration at which the activity in the assay is half-maximal. As a reminder, the IC50 is the concentration that gives 50% inhibition. By CC50 is commonly meant the concentration that lowers cell viability or growth by half.

For the molecule `COc1ccc(C#Cc2ccc([C@@H]3[C@@H](CO)N4C(=O)CN(C(=O)c5ccccc5)C[C@H]34)cc2)cc1`, the concentration at half-maximal activity (AC50) is 2.48 µM (active) in test [1]; 33.4 µM (active) in test [2]; 1.63 µM (active) in [3]; 1.35 µM (active) in test [4]; 1.99 µM (active) in test [5].

Take `Cc1c(Nc2cc(Cl)c3nonc3c2[N+](=O)[O-])c(=O)n(-c2ccccc2)n1C`: the half-maximal activity concentration (AC50) at Paired box protein Pax-8 is 8.97 µM (active). Also, the EC50 at Mu-type opioid receptor was > 32 µM (inactive); in test [6], > 32 µM (inactive); on Beta-galactosidase [9], > 40 µM (inactive); at Beta-galactosidase [14], > 31.5 µM (inactive). Besides, the 50% inhibitory concentration (IC50) in test [7] is 4.14 µM (active); at Genome polyprotein, 21.4 µM (active); in test [8], 2.33 µM (active); in test [10], 123 µM (active); with CHO, 1.53 µM (active); in test [11] it was 3.48 µM (active). The IC50 is 6 µM (active) at Beta Lactamase, > 32 µM (inactive) in test [12] and 30 µM in [13]. Further, the CC50 with Vero was 12.7 µM (active).

For `Cc1ccc(-n2nc(C)c3c(C)cc(O)nc32)cc1`, the IC50 in [15] was > 67.5 µM (inactive). The EC50 was > 67.5 µM (inactive) in [16]; 1.54 µM (active) in [17]; > 180 µM (inactive) in test [18]; > 150 µM (inactive) in test [19]; > 150 µM (inactive) in test [20].

Turning to `C#CCOCCOCCOCCNc1nc(N2CCN(C(=O)[C@H](CCCCN)n3cc([C@@H](N)C(C)CC)nn3)CC2)nc(N2CCN(C(=O)[C@H](CCCCN)n3cc([C@@H](N)C(C)CC)nn3)CC2)n1` (stereo partly specified), the IC50 in [21] is > 96.6 µM (inactive).

As to `O=c1oc(-c2cc3ccccc3o2)nc2sc3c(c12)CCCC3`, the IC50 in test [15] was > 67.5 µM (inactive). Further, the EC50 in test [16] is > 67.5 µM (inactive).

For the molecule `COC(=O)C1=C(C)N(C)C(NCc2ccccc2C(F)(F)F)=NC1c1cccc(F)c1` (stereo unspecified), the IC50 in test [21] is > 96.6 µM (inactive).

Turning to `CC1CCCN(C(=O)CN2CCN(C(=O)c3ccco3)CC2)C1` (stereo unspecified), the IC50 on Protein Tat is > 100 µM (active).

(Values after ChEMBL document CHEMBL1201862, “PubChem BioAssay data set” (2004).)
